In ChEMBL document CHEMBL4507307 (2021):

Assays:
[1] = target: 5-hydroxytryptamine receptor 6 (Homo sapiens) (UniProt P50406); conditions: Compound concentration 10.0 uM
[2] = target: 5-hydroxytryptamine receptor 1A (Homo sapiens) (UniProt P08908); conditions: Compound concentration 10.0 uM
[3] = target: Alpha-1A adrenergic receptor (Homo sapiens, UniProt P35348); assay: GPCRScan assay: inhibition of Alpha1A; design: radioligand conc. used [nm] 0.2 - 1.0, parental cells stable HEK
[4] = target: 5-hydroxytryptamine receptor 5A (Homo sapiens, UniProt P47898); assay: GPCRScan assay: inhibition of 5-HT5A; design: radioligand conc. used [nm] 2.0 - 3.3, parental cells Flp-In CHO
Mu-type opioid receptor = Mu-type opioid receptor (Homo sapiens, UniProt P35372); assay: GPCRScan assay: inhibition of MOR; design: radioligand conc. used [nm] 1.0 – 2.0, parental cells stable HEK
[5] = target: Kappa-type opioid receptor (Homo sapiens, UniProt P41145); assay: GPCRScan assay: inhibition of KOR; design: radioligand conc. used [nm] 0.6 – 1.2, parental cells stable HEK
Sequence of Kappa-type opioid receptor (P41145 whole entry): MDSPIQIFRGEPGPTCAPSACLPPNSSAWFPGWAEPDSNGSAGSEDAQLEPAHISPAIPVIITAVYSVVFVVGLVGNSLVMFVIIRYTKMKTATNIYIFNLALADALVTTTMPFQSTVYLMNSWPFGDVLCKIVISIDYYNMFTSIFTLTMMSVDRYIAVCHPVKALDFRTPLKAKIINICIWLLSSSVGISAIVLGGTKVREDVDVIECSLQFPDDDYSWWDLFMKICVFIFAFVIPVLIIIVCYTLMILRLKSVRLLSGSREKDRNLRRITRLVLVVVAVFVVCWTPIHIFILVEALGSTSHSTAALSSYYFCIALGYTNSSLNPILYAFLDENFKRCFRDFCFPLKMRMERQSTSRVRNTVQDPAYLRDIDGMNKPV

[6] = target: 5-hydroxytryptamine receptor 1D (Homo sapiens, UniProt P28221); assay: GPCRScan assay: inhibition of 5-HT1D; design: radioligand conc. used [nm] 1.0 – 2.0, parental cells HEKT
Sequence of 5-hydroxytryptamine receptor 1D (P28221 whole entry): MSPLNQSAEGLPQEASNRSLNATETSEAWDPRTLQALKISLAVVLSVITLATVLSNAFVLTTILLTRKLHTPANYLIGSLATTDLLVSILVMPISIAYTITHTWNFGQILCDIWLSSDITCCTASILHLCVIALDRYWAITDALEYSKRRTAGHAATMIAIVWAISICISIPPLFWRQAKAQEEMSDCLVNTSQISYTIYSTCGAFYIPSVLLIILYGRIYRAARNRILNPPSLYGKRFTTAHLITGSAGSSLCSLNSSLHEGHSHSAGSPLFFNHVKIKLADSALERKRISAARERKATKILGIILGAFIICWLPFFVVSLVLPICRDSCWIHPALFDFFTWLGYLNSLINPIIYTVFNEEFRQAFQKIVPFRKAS

[7] = target: Alpha-2B adrenergic receptor (Homo sapiens, UniProt P18089); assay: GPCRScan assay: inhibition of Alpha2B; design: radioligand conc. used [nm] 1.5 – 2.0, parental cells HEKT
Sequence of Alpha-2B adrenergic receptor (P18089 whole entry): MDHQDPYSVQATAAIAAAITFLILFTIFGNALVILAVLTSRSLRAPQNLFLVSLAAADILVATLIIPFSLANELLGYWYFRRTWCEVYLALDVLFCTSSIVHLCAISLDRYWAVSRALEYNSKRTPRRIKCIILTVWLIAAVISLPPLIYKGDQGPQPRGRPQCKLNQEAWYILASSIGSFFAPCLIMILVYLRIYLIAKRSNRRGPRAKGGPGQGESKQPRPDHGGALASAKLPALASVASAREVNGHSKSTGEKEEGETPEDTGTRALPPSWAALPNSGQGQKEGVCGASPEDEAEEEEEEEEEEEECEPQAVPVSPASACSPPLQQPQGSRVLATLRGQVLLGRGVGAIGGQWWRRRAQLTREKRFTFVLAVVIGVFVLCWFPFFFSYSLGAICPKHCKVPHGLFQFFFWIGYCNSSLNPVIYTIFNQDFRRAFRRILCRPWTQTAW

[8] = target: Death-associated protein kinase 1 (Homo sapiens) (UniProt P53355); assay: DAPK1 Kinase activity screen
Sequence of Death-associated protein kinase 1 (Homo sapiens) (P53355 whole entry, looked up): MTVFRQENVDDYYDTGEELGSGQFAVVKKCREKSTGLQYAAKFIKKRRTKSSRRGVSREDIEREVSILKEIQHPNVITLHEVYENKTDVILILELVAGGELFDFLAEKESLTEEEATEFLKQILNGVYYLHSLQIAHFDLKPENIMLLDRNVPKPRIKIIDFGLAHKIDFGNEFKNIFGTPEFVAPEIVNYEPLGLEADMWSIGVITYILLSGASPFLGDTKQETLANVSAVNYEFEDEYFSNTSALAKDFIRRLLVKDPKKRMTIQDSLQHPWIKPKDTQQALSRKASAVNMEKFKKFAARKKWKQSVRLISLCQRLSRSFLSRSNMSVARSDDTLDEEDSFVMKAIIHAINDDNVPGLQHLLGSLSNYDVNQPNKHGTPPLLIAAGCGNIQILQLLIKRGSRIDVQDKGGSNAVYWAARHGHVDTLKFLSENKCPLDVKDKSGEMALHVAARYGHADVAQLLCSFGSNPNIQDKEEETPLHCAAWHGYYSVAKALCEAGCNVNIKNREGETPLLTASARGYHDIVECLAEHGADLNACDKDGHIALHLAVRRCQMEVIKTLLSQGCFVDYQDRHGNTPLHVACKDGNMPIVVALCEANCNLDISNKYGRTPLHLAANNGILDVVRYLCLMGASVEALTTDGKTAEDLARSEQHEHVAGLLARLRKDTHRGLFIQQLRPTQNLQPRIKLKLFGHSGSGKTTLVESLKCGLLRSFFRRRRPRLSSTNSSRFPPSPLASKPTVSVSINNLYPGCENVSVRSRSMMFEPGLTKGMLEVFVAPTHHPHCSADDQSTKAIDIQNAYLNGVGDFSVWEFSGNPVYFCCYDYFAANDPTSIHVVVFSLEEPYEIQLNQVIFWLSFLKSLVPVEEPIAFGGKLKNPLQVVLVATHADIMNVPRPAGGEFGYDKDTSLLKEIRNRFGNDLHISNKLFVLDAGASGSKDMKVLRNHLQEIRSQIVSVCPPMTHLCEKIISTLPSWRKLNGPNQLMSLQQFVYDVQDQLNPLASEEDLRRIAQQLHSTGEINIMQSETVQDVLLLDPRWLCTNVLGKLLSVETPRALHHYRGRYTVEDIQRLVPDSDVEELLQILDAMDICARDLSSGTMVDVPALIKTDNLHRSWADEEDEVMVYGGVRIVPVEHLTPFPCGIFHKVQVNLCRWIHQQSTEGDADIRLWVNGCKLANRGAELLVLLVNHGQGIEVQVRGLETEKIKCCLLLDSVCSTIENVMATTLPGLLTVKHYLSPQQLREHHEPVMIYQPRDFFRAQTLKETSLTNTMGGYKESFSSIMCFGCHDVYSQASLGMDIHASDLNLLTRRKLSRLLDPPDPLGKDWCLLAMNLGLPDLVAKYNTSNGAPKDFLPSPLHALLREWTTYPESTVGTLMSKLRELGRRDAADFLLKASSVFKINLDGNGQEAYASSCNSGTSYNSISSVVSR

[9] = target: Tyrosine-protein kinase ABL1 (Homo sapiens) (UniProt P00519); assay: ABL1 Kinase activity screen
[10] = target: Ephrin type-A receptor 2 (Homo sapiens) (UniProt P29317); assay: EPHA2 Kinase activity screen
[11] = target: Calcium/calmodulin-dependent protein kinase type 1 (Homo sapiens) (UniProt Q14012); assay: CAMK1 (CaMK1) Kinase activity screen
Sequence of Calcium/calmodulin-dependent protein kinase type 1 (Homo sapiens) (Q14012 whole entry, looked up): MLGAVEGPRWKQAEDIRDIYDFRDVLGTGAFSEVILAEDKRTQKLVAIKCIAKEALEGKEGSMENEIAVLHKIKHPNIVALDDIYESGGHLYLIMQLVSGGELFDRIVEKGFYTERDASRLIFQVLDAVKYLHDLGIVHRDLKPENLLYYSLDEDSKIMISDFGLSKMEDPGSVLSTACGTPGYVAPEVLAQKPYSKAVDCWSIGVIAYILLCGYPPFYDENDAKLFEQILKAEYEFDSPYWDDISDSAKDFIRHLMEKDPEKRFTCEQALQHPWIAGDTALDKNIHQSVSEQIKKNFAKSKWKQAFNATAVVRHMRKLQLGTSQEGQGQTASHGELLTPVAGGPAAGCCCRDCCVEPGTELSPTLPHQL

[12] = target: Serine/threonine-protein kinase B-raf (Homo sapiens) (UniProt P15056); assay: BRAF Kinase activity screen
[13] = target: Mitogen-activated protein kinase 11 (Homo sapiens) (UniProt Q15759); assay: MAPK11 (p38 beta) Kinase activity screen
Sequence of Mitogen-activated protein kinase 11 (Homo sapiens) (Q15759 whole entry): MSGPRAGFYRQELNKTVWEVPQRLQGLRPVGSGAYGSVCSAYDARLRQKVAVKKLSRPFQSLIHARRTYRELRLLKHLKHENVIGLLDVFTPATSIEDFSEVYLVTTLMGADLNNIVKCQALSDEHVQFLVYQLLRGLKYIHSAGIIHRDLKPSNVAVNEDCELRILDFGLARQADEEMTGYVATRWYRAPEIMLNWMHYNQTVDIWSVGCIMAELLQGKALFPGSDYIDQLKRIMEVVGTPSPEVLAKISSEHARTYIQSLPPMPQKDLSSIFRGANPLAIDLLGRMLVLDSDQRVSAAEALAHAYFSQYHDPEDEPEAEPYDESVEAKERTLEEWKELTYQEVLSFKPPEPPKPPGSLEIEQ

[14] = target: SRSF protein kinase 1 (Homo sapiens) (UniProt Q96SB4); assay: SRPK1 Kinase activity screen
Sequence of SRSF protein kinase 1 (Homo sapiens) (Q96SB4 whole entry): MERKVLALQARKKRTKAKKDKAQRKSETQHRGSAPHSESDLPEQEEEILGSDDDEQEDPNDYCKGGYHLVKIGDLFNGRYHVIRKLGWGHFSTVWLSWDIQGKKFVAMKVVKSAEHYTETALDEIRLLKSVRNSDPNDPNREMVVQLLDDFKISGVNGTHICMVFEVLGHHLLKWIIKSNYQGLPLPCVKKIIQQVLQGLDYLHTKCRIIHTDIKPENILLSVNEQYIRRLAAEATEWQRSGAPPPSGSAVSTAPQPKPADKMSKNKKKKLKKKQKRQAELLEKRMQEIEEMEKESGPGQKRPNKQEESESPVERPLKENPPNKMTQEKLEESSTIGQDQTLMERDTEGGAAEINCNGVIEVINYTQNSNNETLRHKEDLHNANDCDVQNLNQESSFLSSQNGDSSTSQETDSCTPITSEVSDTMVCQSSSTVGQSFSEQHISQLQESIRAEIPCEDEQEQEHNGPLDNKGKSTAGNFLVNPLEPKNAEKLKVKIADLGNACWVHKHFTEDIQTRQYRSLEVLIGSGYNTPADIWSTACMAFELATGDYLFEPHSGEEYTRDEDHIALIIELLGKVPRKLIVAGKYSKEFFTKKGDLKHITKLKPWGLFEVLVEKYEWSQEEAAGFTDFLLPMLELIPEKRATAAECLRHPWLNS

[15] = target: Dual specificity protein kinase CLK3 (Homo sapiens) (UniProt P49761); assay: CLK3 Kinase activity screen
Sequence of Dual specificity protein kinase CLK3 (Homo sapiens) (P49761 whole entry, looked up): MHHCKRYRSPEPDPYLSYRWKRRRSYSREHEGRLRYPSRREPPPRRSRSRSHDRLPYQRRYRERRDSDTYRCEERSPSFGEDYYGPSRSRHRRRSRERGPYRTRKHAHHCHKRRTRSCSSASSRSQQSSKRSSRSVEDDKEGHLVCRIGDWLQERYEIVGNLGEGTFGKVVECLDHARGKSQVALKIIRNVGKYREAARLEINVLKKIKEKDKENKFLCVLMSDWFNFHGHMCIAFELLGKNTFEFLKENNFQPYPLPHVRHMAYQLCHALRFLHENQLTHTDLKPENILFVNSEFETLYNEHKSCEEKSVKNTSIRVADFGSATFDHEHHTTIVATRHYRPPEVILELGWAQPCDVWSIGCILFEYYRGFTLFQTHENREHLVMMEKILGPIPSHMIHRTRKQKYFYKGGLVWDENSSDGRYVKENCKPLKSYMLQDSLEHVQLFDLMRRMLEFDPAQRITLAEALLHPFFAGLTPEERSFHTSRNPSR

[16] = target: Interleukin-1 receptor-associated kinase 4 (Homo sapiens) (UniProt Q9NWZ3); assay: IRAK4 Kinase activity screen
Sequence of Interleukin-1 receptor-associated kinase 4 (Homo sapiens) (Q9NWZ3 whole entry): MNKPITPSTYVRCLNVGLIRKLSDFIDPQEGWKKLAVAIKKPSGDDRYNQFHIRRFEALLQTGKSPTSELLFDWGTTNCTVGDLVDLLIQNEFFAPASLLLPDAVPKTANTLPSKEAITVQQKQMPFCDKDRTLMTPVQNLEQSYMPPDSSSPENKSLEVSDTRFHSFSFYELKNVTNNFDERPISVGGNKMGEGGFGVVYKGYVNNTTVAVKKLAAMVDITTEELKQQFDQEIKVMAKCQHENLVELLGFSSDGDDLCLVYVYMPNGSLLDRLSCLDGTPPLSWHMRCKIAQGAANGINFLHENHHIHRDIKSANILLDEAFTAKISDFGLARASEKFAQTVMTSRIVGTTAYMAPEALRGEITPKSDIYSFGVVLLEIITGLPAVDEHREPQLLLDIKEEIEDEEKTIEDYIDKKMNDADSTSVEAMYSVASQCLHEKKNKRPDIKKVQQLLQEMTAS

[17] = target: CDK7/Cyclin H/MNAT1 (Homo sapiens) (UniProt P51946+P50613+P51948); assay: CDK7/cyclin H/MNAT1 Kinase activity screen; type: protein-complex assay
[18] = Compound concentration 0.123 uM

`CN1CCN(C(=O)C(C)(C)c2ccc(C(=O)Nc3cn4cc(-c5cc(C(C)(C)C)cc(C(C)(C)C)c5)ccc4n3)cc2)CC1` [T3-CLK-N] was tested, and the inhibition [1] was 30.8%, the inhibition [2] was 51.3% and the Ki ([3]; read-out: Ki) was 1.39 µM. The Ki ([3]; read-out: pKi (converted)) was 1.35 µM, the Ki ([4]; read-out: Ki) was 2.49 µM and the Ki ([4]; read-out: pKi (converted)) was 2.24 µM. It also gave a Ki (Mu-type opioid receptor) of 4.02 µM, a Ki ([5]; read-out: Ki) of 0.99 µM and a Ki ([5]; read-out: pKi (converted)) of 0.977 µM. It also gave a Ki ([6]; read-out: Ki) of 3.07 µM, a Ki ([6]; read-out: pKi (converted)) of 2.82 µM and a Ki ([7]; read-out: Ki) of 1.65 µM. It also gave a Ki ([7]; read-out: pKi (converted)) of 1.62 µM.
With `CN1CCN(C(=O)C(C)(C)c2ccc(C(=O)Nc3cn4cc(-c5ccncc5)ccc4n3)cc2)CC1` [T3-CLK] the inhibition ([8]; Compound concentration 0.1 uM) was -4.42%, the inhibition ([8]; Compound concentration 1.0 uM) was -6.43% and the inhibition ([9]; Compound concentration 0.1 uM) was 10.1%. The inhibition ([9]; Compound concentration 1.0 uM) was 55.7%, the inhibition ([10]; Compound concentration 0.1 uM) was -4.09% and the inhibition ([10]; Compound concentration 1.0 uM) was -6.26%. The inhibition ([11]; Compound concentration 0.1 uM) was 7.14%, the inhibition ([11]; Compound concentration 1.0 uM) was 5.32% and the inhibition ([12]; Compound concentration 0.1 uM) was 8.71%. For the same compound, the inhibition ([12]; Compound concentration 1.0 uM) was 17.2%, the inhibition ([13]; Compound concentration 0.1 uM) was 0.672% and the inhibition ([13]; Compound concentration 1.0 uM) was 0.93%. The inhibition [14, 18] was -3.09%, the inhibition ([14]; Compound concentration 1.11 uM) was -2.58% and the inhibition [15, 18] was 38.3%. For the same compound, the inhibition ([15]; Compound concentration 1.11 uM) was 88.7%, the inhibition ([16]; Compound concentration 0.1 uM) was 25.3% and the inhibition ([16]; Compound concentration 1.0 uM) was 42.4%. The inhibition ([17]; Compound concentration 0.1 uM) was 0.551% and the inhibition ([17]; Compound concentration 1.0 uM) was -3.41%.
